Legend:
[1] = logD7.4 determination of radiotracers (PBS/octan-1-ol); type: physicochemical; settings: octan-1-ol/PBS; PBS pH 7.4 / octan-1-ol, radiotracer
Method: The logD 7.4 values of both radiotracers were determined using a previously described method based on their distribution between phosphate‐buffered saline (PBS) and octan‐1‐ol.
Triazole radiotracers (~400 kBq) in PBS buffer (10 µL, pH 7.4) were added to PBS buffer (590 µL, pH 7.4) and octan-1-ol (600 µL). The two-layer mixture was shaken for 3 min on a vortex mixer at r.t. and centrifuged (200 g) for 5 min. The main part of the octanol layer (400 µL) was carefully collected and transferred to a new tube containing PBS buffer (400 µL, pH 7.4). The two-layer mixture was shaken again for 10 min and centrifuged for 5 min (200 g). Three samples were prepared, and two aliquots (á 100 µL) of both layers were measured in a gamma-counter 2480 Wizard2 (Perkin-Elmer, Waltham, USA). The partition coefficient was determined by dividing cpm (octanol) by cpm (PBS) and indicated as logD7.4 (exp.).

[2] = target: T1, Soluble recombinant human CD73 (Homo sapiens, UniProt P21589); test: CD73 enzyme inhibition assay, soluble recombinant human CD73; type: biochemical; settings: soluble recombinant human CD73, Km 17 µM, substrate AMP (5 µM)
T1 sequence (P21589 27-549 limits assumed): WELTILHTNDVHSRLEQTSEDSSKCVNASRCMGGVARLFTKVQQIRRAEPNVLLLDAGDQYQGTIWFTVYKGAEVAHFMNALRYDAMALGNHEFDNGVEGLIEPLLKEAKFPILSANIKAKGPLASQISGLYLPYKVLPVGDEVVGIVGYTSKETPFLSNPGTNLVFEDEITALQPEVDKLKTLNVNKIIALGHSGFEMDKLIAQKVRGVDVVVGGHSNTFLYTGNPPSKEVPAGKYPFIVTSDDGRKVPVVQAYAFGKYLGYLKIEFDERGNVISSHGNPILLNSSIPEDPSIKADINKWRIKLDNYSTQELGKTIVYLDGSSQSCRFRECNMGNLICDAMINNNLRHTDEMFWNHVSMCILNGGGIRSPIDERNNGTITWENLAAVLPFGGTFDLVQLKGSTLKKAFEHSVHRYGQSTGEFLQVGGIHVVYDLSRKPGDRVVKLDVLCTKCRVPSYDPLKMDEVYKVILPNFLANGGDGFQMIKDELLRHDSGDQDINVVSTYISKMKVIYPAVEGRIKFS
Method: Both compounds were evaluated for metabolic stability in mouse liver microsomes (MLM) and plasma protein binding (PPB) (Table 1).
The CD73 enzyme inhibition assay of recombinant soluble CD73, membrane-bound human CD73, soluble rat CD73 and mouse CD73 was performed as previously described.^[16,35^]

MDA‐MB‐231 tumor = test: PET imaging in MDA-MB-231 breast cancer xenograft model; type: in vivo, NSG mice
Method: Given the specificity of [^18F]1 and [^18F]2 and the promising in vivo biodistribution profile of [^18F]1, we established a small‐animal human breast tumor xenograft model in NSG mice subcutaneously implanted with MDA‐MB‐231 cells. […] For blocking studies, PSB‐12651 (15, Figure 6) or unlabeled 1 were used.
FIGURE 6 PET imaging data in an MDA‐MB‐231 tumor mouse model. (A). PET images, CT scans, and merged images of [^18F]2 in the MDA‐MB‐231 tumor mouse model 90 min after tracer injection. White arrows mark the tumor positions. (B). Quantitative PET analysis of [^18F]2 uptake: activity concentration of [^18F]2 in muscle and tumor tissues 90 min after tracer injection (left) and respective tumor‐to‐muscle ratio (right, n = 5 tumors). (C). PET‐CT images of [^18F]1 and [^18F]FDG in the MDA‐MB‐231 tumor mouse model, 260 min ([^18F]1), or 75 min ([^18F]FDG) after injection. […] White arrows mark the positions of tumors. (D). Quantitative PET analysis of [^18F]1 uptake: activity concentration of [^18F]1 and [^18F]FDG in muscle and tumor tissues (left) and tumor‐to‐muscle ratios (right) after 260 min. [^18F]1: n = 18 tumors, [^18F]1 plus unlabeled 1 block: n = 8 tumors, [^18F]1 plus compound 15 block: n = 6 tumors, [^18F]FDG: n = 18 tumors E. Ex vivo analysis of [^18F]1 uptake as measured by gamma counter: activity concentrations of [^18F]1 in muscle and tumor tissues after 260 min without and with blocking (left) and tumor‐to‐muscle ratios (right). [^18F]1: n = 6 tumors, [^18F]1 plus unlabeled 1 block: n = 6 tumors, [^18F]1 plus compound 15 block: n = 5 tumors.^# relative to the respective muscle, *relative to [^18F]1 without blocker, relative to the unblocked tumor; *<0.05; **<0.01, ***<0.001,^#<0.05; ^## <0.01, ^###<0.001, <0.05; <0.01, <0.001, ns: non‐significant, unpaired t‐test.
MDA-MB-231 cells were cultivated in DMEM/GlutaMAX, supplemented with 10 % fetal calf serum, 100 U/mL penicillin, and 100 µg/mL streptomycin and L-glutamine to a final concentration of 8 mmol/L. AsPC-1 cells were cultivated in RPMI, supplemented with 10 % fetal calf serum, 100 U/mL penicillin, and 100 µg/mL streptomycin and L-glutamine to a final concentration of 8 mmol/L. 5 x 10^6 MDA-MB-231 or 1x 10^6 AsPC-1 cells were injected subcutaneously into the shoulder region of 7 to 12 weeks old NSG (NOD.Cg-Prkdc^scid Il2rg^tm1Wjl/SzJ) mice (Charles River Laboratories). Two tumors were inoculated per animal, and growth was followed by digital caliper measurements (volume = ½ (length * width^2)).
Adult C57bl/6 (biodistribution study, 19.8±1.3 g) or tumor-bearing NSG mice (22.2±2.2 g) were anesthetized by isoflurane/O2, and one lateral tail vein was cannulated using a 27 G needle. A respective radiotracer (~ 390 kBq/g body weight) was injected as a bolus via the tail vein, and subsequent PET scanning was performed. A ~1000-fold excess of unlabeled JMS0414 (14 for [^18F]MRS-4648 ([^18F]2)), unlabeled PSB-19427 (1), or PSB-12651 (15) (for [^18F]PSB-19427 ([^18F]1)) was injected into a subgroup of tumor-bearing mice 10 min before radiotracer injection in the blocking studies. PET imaging studies were carried out using a submillimeter high resolution (0.7 mm full width at half-maximum) small animal scanner (32 module quadHIDAC, Oxford Positron Systems Ltd., Oxford, UK) with a uniform spatial resolution (<1 mm) over a large cylindrical field (165 mm diameter, 280 mm axial length). […]

logD [1]	Ki [2] [nM]	Tumor accumulation (MDA‐MB‐231 tumor; MDA‐MB‐231 model, 90 min PET)	Muscle uptake (MDA‐MB‐231 tumor; MDA‐MB‐231 model, PET, after 260 min)	Tumor uptake (MDA‐MB‐231 tumor; MDA‐MB‐231 tumor, PET, after 260 min)	SMILES
-0.12	1.02 ± 0.11	–	–	–	CCCN(Cc1ccc(-c2cn(CC[18F])nn2)cc1)c1nc(Cl)nc2c1ncn2[C@@H]1O[C@H](COP(=O)(O)CP(=O)(O)O)[C@@H](O)[C@H]1O [[^18F]1, [^18F]-[((2R,3S,4R,5R)-5-{2-chloro-6-[(4-{1-[2-(fluoro)ethyl]-1H-1,2,3-triazol-4-yl}benzyl)-(propyl)amino]-9H-purin-9-yl}-3,4-dihydroxytetrahydrofuran-2-yl)methoxy]methylene-bisphosphonic acid]
0.74 ± 0.29	0.664 ± 0.089	very low tumor accumulation	–	–	Cn1c(=O)n([C@@H]2O[C@H](COP(=O)(O)CP(=O)(O)O)[C@@H](O)[C@H]2O)cc/c1=N/OCc1ccc(-c2cn(CC[18F])nn2)cc1 [[^18F]2, [^18F]-{[(2R,3S,4R,5R)-5-(4-{[(4-{1-[2-(fluoro)ethyl]-1H-1,2,3-triazol-4-yl}benzyl)-oxy]imino}-3-methyl-2-oxo-3,4-dihydropyrimidin-1(2H)-yl)-3,4-dihydroxytetra-hydrofuran-2-yl]methoxy}methylenebisphosphonic acid]
-0.12 ± 0.03	1.02	–	0.86% ± 0.24 % ID/mL	3.60% ± 1.27 %ID/mL	CCCN(Cc1ccc(-c2cn(CCF)nn2)cc1)c1nc(Cl)nc2c1ncn2[C@@H]1O[C@H](COP(=O)(O)CP(=O)(O)O)[C@@H](O)[C@H]1O [compound 1]

— article PMC13077603, “Fluorine‐18‐Labeled Nucleotide Analogs Targeting Ecto‐5'‐Nucleotidase (CD73) for Positron Emission Tomography Imaging of Solid Tumors” (Angewandte Chemie (International Ed. in English), 2026)
